Among the test systems are Aureobasidium pullulans; Escherichia coli K88; Escherichia coli UB1005; Acinetobacter baumannii; Escherichia coli 078; Escherichia coli K99.
Holding throughout (test): ≥ marks a high value that may be exact or a test limit, other limits are often not marked, values filed in µg/mL are converted to µM
The test system of test [1] is Candida albicans ATCC 10231.
Test [2] deals with Corynebacterium glutamicum ATCC 13032.
Test [3] concerns Escherichia coli ATCC 25922.
The subject of test [4] is Pseudomonas aeruginosa ATCC 27853.
Test [5] has as its system Staphylococcus aureus ATCC 9144.
The test system of test [6] is Bacillus subtilis KCTC 3068.
For test [7], the system named is Enterococcus faecium ATCC 51559.
The subject of test [8] is Escherichia coli KCTC 1682.
Test [9] relates to Pseudomonas aeruginosa CCARM 2095.
Test [10] concerns Pseudomonas aeruginosa CCARM 2109.
In test [11] the test system is Pseudomonas aeruginosa KCTC 1637.
The test system of test [12] is Salmonella typhimurium KCTC 1926.
Test [13] deals with Staphylococcus aureus CCARM 3089.
In test [14] the test system is Staphylococcus aureus CCARM 3090.
The subject of test [15] is Staphylococcus aureus CCARM 3095.
In test [16] the test system is Staphylococcus aureus KCTC 1621.
The subject of test [17] is Staphylococcus epidermidis KCTC 1917.
For test [18], the system named is Escherichia coli CVCC 1515.
Test [19] has as its system Salmonella enterica subsp. enterica serovar Typhimurium ATCC 14028.
The test system of test [20] is Staphylococcus aureus ATCC 29213.
Test [21] has as its system Staphylococcus epidermidis ATCC 12228.
For test [22], the system named is Bacillus cereus CGMCC 1.932.
Test [23] relates to Bacillus subtilis CMCC 63501.
In test [24] the test system is Enterococcus faecalis ATCC 29212.
Test [25] relates to Listeria monocytogenes CGMCC 1.1075.
For test [26], the system named is Pseudomonas aeruginosa PAO1.
Test [27] deals with Salmonella enterica subsp. enterica serovar Pullorum ATCC 7913.
Test [28] relates to Salmonella typhimurium ATCC 7731.
Test [29] concerns Staphylococcus aureus ATCC 25923.
Test [30] concerns Staphylococcus aureus ATCC 43300.

Six compounds from DBAASP can be followed below.

Molecules are shown by their SMILES. Values after ≈ are worked out from the molar mass of the structure shown. Values joined by “and” are separate entries in the source; they are usually repeats but may differ in a detail not shown here. Equal entries are not always repeated. A value given as a limit tells only on which side of the number the result lay.

The term MIC denotes the least concentration at which growth counts as inhibited. Low values mean a more susceptible organism, high ones a less susceptible organism. Turning to `CC(C)[C@H](NC(=O)[C@H](CCCCN)NC(=O)[C@H](C)NC(=O)[C@@H](NC(=O)[C@@H](NC(=O)[C@H](CCCN=C(N)N)NC(=O)[C@H](CCCN=C(N)N)NC(=O)[C@H](Cc1c[nH]c2ccccc12)NC(=O)[C@H](C)NC(=O)CN)[C@@H](C)O)C(C)C)C(=O)N[C@@H](CCCN=C(N)N)C(=O)N[C@@H](CCCCN)C(N)=O` [GAWRRTVAKVRK], the MIC with Aureobasidium pullulans was at least 50 µM; in test [1], 50 µM (≈ 71.3 µg/mL); in [2], 3.1 µM (≈ 4.42 µg/mL); in [3], 50 µM (≈ 71.3 µg/mL); in test [4], 200 µM (≈ 285 µg/mL); in test [5], at least 100 µM.
Take `CC(C)[C@H](NC(=O)[C@@H](NC(=O)[C@H](CCCN=C(N)N)NC(=O)[C@H](CCCN=C(N)N)NC(=O)[C@H](Cc1c[nH]c2ccccc12)NC(=O)[C@H](Cc1c[nH]c2ccccc12)NC(=O)CN)[C@@H](C)O)C(=O)N[C@@H](C)C(=O)N[C@@H](CCCCN)C(=O)N[C@@H](C)C(=O)N[C@@H](CCCN=C(N)N)C(=O)N[C@@H](CCCCN)C(N)=O` [GWWRRTVAKARK]: the minimum inhibitory concentration (MIC) against Aureobasidium pullulans was at least 50 µM; in test [1], 25 µM (≈ 37.8 µg/mL); in [2], 1.6 µM (≈ 2.42 µg/mL); in test [3], 12.5 µM (≈ 18.9 µg/mL); in test [4], 6.3 µM (≈ 9.54 µg/mL); in test [5], at least 100 µM.
For the compound `CC[C@H](C)[C@H](NC(=O)[C@H](C)NC(=O)[C@H](CCCN=C(N)N)NC(=O)[C@H](Cc1ccc(O)cc1)NC(=O)[C@H](CC(C)C)NC(=O)[C@H](CCCCN)NC(=O)[C@H](Cc1ccc(O)cc1)NC(=O)CNC(=O)[C@H](C)NC(=O)[C@H](CCCN=C(N)N)NC(=O)[C@@H](NC(=O)[C@H](Cc1c[nH]c2ccccc12)NC(=O)[C@H](CCCN=C(N)N)NC(=O)[C@@H](NC(=O)[C@@H](NC(=O)[C@@H](N)CC(C)C)C(C)C)[C@@H](C)CC)C(C)C)C(=O)N[C@@H](CCCCN)C(=O)N[C@@H](CCCCN)C(=O)N[C@@H](CCCCN)C(N)=O` [LVIRWVRAGYKLYRAIKKK], the minimum inhibitory concentration (MIC) in test [6] was 2 µM (≈ 4.72 µg/mL); in test [7] it was 4 µM (≈ 9.44 µg/mL); in [8], 4 µM and 8 µM; in test [9] it was 2 µM (≈ 4.72 µg/mL); in test [10] it was 4 µM (≈ 9.44 µg/mL); in test [11], 8 µM (≈ 18.9 µg/mL). Moreover, the minimum inhibitory concentration (MIC) in [12] was 2 µM (≈ 4.72 µg/mL); in [13] it was 4 µM (≈ 9.44 µg/mL); in [14], 2 µM (≈ 4.72 µg/mL); in test [15] it was 2 µM (≈ 4.72 µg/mL); in test [16], 2 µM and 4 µM; in test [17] it was 4 µM (≈ 9.44 µg/mL).
As to `CC(C)C[C@H](NC(=O)[C@H](CCCCN)NC(=O)[C@H](C)NC(=O)[C@H](C)NC(=O)[C@H](C)NC(=O)[C@H](CCCCN)NC(=O)[C@H](C)NC(=O)[C@H](C)NC(=O)[C@H](C)NC(=O)[C@H](CCCCN)NC(=O)[C@H](Cc1c[nH]c2ccccc12)NC(=O)[C@@H](N)CC(C)C)C(=O)N[C@@H](Cc1c[nH]c2ccccc12)C(N)=O` [LWKAAAKAAAKLW], the MIC is 4 µM (≈ 5.71 µg/mL) in test [3]; 8 µM (≈ 11.4 µg/mL) in test [18]; 4 µM (≈ 5.71 µg/mL) against Escherichia coli K88; 8 µM (≈ 11.4 µg/mL) in the test with Escherichia coli UB1005; 8 µM (≈ 11.4 µg/mL) in [4]; 32 µM (≈ 45.7 µg/mL) in test [19]. Besides, the MIC in [20] and in [21] was 8 µM (≈ 11.4 µg/mL) each time.
Regarding `C[C@H](NC(=O)[C@H](CCCN=C(N)N)NC(=O)[C@H](Cc1c[nH]c2ccccc12)NC(=O)[C@H](CCCN=C(N)N)NC(=O)[C@H](Cc1c[nH]c2ccccc12)NC(=O)[C@H](Cc1c[nH]c2ccccc12)NC(=O)[C@H](Cc1c[nH]c2ccccc12)NC(=O)[C@H](CCCN=C(N)N)NC(=O)[C@H](Cc1c[nH]c2ccccc12)NC(=O)[C@H](CCCN=C(N)N)NC(=O)[C@@H](N)CO)C(N)=O` [SRWRWWWRWRA], the minimal inhibitory concentration (MIC) in the test with Acinetobacter baumannii was determined as 2 µM (≈ 3.46 µg/mL); in test [22], 4 µM (≈ 6.92 µg/mL); in [23] it was 8 µM (≈ 13.8 µg/mL); in test [24], 4 µM (≈ 6.92 µg/mL); in the test on Escherichia coli 078 it was 2 µM (≈ 3.46 µg/mL); against Escherichia coli K88, 4 µM (≈ 6.92 µg/mL). Also, the MIC with Escherichia coli K99 is 1 µM (≈ 1.73 µg/mL); with Escherichia coli UB1005 it was 1 µM (≈ 1.73 µg/mL); in test [25], 2 µM (≈ 3.46 µg/mL); in test [4] it was 2 µM (≈ 3.46 µg/mL); in test [26] it was 4 µM (≈ 6.92 µg/mL); in [27], 0.5 µM (≈ 0.866 µg/mL). The MIC in [19] was 2 µM (≈ 3.46 µg/mL); in test [28], 4 µM (≈ 6.92 µg/mL); in test [29], 1 µM (≈ 1.73 µg/mL); in test [30], 2 µM (≈ 3.46 µg/mL); in [21], 0.5 µM (≈ 0.866 µg/mL).
Regarding `C[C@H](NC(=O)[C@H](CCCN=C(N)N)NC(=O)[C@H](Cc1c[nH]c2ccccc12)NC(=O)[C@H](CCCN=C(N)N)NC(=O)[C@H](Cc1c[nH]c2ccccc12)NC(=O)[C@H](Cc1c[nH]c2ccccc12)NC(=O)[C@H](Cc1c[nH]c2ccccc12)NC(=O)[C@H](CCCN=C(N)N)NC(=O)[C@H](Cc1c[nH]c2ccccc12)NC(=O)[C@H](CCCN=C(N)N)NC(=O)[C@@H](N)[C@@H](C)O)C(N)=O` [TRWRWWWRWRA], the minimum inhibitory concentration (MIC) against Acinetobacter baumannii amounted to 2 µM (≈ 3.49 µg/mL); in test [22], 8 µM (≈ 14 µg/mL); in [23], 16 µM (≈ 27.9 µg/mL); in [24], 4 µM (≈ 6.98 µg/mL); in the test with Escherichia coli 078, 2 µM (≈ 3.49 µg/mL); in the test with Escherichia coli K88, 2 µM (≈ 3.49 µg/mL). Also, the minimum inhibitory concentration (MIC) in the test with Escherichia coli K99 was 2 µM (≈ 3.49 µg/mL); in the test on Escherichia coli UB1005, 1 µM (≈ 1.75 µg/mL); in [25], 1 µM (≈ 1.75 µg/mL); in test [4] it was 2 µM (≈ 3.49 µg/mL); in [26], 16 µM (≈ 27.9 µg/mL); in test [27], 1 µM (≈ 1.75 µg/mL). The MIC was determined as 1 µM (≈ 1.75 µg/mL) in [19]; 2 µM (≈ 3.49 µg/mL) in test [28]; 1 µM (≈ 1.75 µg/mL) in test [29]; 2 µM (≈ 3.49 µg/mL) in [30]; 1 µM (≈ 1.75 µg/mL) in [21].
